Source: article PMC9986241 (Signal Transduction and Targeted Therapy, 2023)
Each block holds one compound with its values, some of them ahead of it.

Key:
Experiment in all cases: KinaseProfiler enzyme profiling
Format in all cases: biochemical
[1] = target: T1, Aurora-A(h) (Homo sapiens, UniProt O14965)
T1 construct: purchased Eurofins KinaseProfiler
Summary of the method: (§1)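 In this commercial enzyme profiling, 70 kinases were assayed in vitro with erianin present at 100 nM. Results come from two repetitions.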

[2] = target: T2, Aurora-B(h) (Homo sapiens, UniProt Q96GD4)
T2 construct: purchased Eurofins KinaseProfiler
Summary of the method: as §1

[3] = target: T3, Axl(h) (Homo sapiens, UniProt P30530)
T3 construct: purchased Eurofins KinaseProfiler
Summary of the method: as §1

[4] = target: T4, Bmx(h) (Homo sapiens, UniProt P51813)
T4 construct: purchased Eurofins KinaseProfiler
Summary of the method: as §1

[5] = target: T5, CDK5/p35(h) (Homo sapiens, UniProt Q00535)
T5 construct: purchased Eurofins KinaseProfiler
Summary of the method: as §1

[6] = target: T6, CK2(h) (Homo sapiens, UniProt P68400)
T6 construct: purchased Eurofins KinaseProfiler
Summary of the method: as §1

[7] = target: T7, CSK(h) (Homo sapiens, UniProt P41240)
T7 construct: purchased Eurofins KinaseProfiler
Summary of the method: as §1

[8] = target: T8, CaMKIIβ(h) (Homo sapiens, UniProt Q13554)
T8 construct: purchased Eurofins KinaseProfiler
Summary of the method: as §1

[9] = target: T9, DCAMKL3(h) (Homo sapiens, UniProt Q9C098)
T9 construct: purchased Eurofins KinaseProfiler
Summary of the method: as §1

[10] = target: T10, DYRK2(h) (Homo sapiens, UniProt Q92630)
T10 construct: purchased Eurofins KinaseProfiler
Summary of the method: as §1

[11] = target: T11, EphA2(h) (Homo sapiens, UniProt P29317)
T11 construct: purchased Eurofins KinaseProfiler
Summary of the method: as §1

[12] = target: T12, FGFR2(h) (Homo sapiens, UniProt P21802)
T12 construct: purchased Eurofins KinaseProfiler
Summary of the method: as §1

[13] = target: T13, Flt4(h) (Homo sapiens, UniProt P35916)
T13 construct: purchased Eurofins KinaseProfiler
Summary of the method: as §1

[14] = target: T14, HIPK3(h) (Homo sapiens, UniProt Q9H422)
T14 construct: purchased Eurofins KinaseProfiler
Summary of the method: as §1

[15] = target: T15, MKK6(h) (Homo sapiens, UniProt P52564)
T15 construct: purchased Eurofins KinaseProfiler
Summary of the method: as §1

[16] = target: T16, cKit(h) (Homo sapiens, UniProt P10721)
T16 construct: purchased Eurofins KinaseProfiler
Summary of the method: as §1

[17] = target: T17, A-Raf(h) (Homo sapiens, UniProt P10398); settings: 100 nM
T17 construct: purchased Eurofins KinaseProfiler
Summary of the method: as §1

[18] = target: T18, BTK(h) (Homo sapiens, UniProt Q06187); settings: 100 nM
T18 construct: purchased Eurofins KinaseProfiler
Summary of the method: as §1

[19] = target: T19, CaMKIIα(h) (Homo sapiens, UniProt Q9UQM7); settings: 100 nM
T19 construct: purchased Eurofins KinaseProfiler
Summary of the method: as §1

[20] = target: T20, EphA5(h) (Homo sapiens, UniProt P54756); settings: 100 nM
T20 construct: purchased Eurofins KinaseProfiler
Summary of the method: as §1

[21] = target: T21, EphB1(h) (Homo sapiens, UniProt P54762); settings: 100 nM
T21 construct: purchased Eurofins KinaseProfiler
Summary of the method: as §1

[22] = target: T22, Flt1(h) (Homo sapiens, UniProt P17948); settings: 100 nM
T22 construct: purchased Eurofins KinaseProfiler
Summary of the method: as §1

[23] = target: T23, KDR(h) (Homo sapiens, UniProt P35968); settings: 100 nM
T23 construct: purchased Eurofins KinaseProfiler
Summary of the method: as §1

[24] = target: T24, Pim-3(h) (Homo sapiens, UniProt Q86V86); settings: 100 nM
T24 construct: purchased Eurofins KinaseProfiler
Summary of the method: as §1

[25] = target: T25, Ros(h) (Homo sapiens, UniProt P08922); settings: 100 nM
T25 construct: purchased Eurofins KinaseProfiler
Summary of the method: as §1

[26] = target: T26, SGK(h) (Homo sapiens, UniProt O00141); settings: 100 nM
T26 construct: purchased Eurofins KinaseProfiler
Summary of the method: as §1

[27] = target: T27, Wee1(h) (Homo sapiens, UniProt P30291); settings: 100 nM
T27 construct: purchased Eurofins KinaseProfiler
Summary of the method: as §1

[28] = target: T28, eEF-2K(h) (Homo sapiens, UniProt O00418); settings: 100 nM
T28 construct: purchased Eurofins KinaseProfiler
Summary of the method: as §1

[29] = target: T29, CDK2/cyclinE(h) (Homo sapiens, UniProt P24941)
T29 construct: purchased Eurofins KinaseProfiler
Summary of the method: as §1

[30] = target: T30, CDK7/cyclinH/MAT1(h) (Homo sapiens, UniProt P50613)
T30 construct: purchased Eurofins KinaseProfiler
Summary of the method: as §1

[31] = target: T31, DMPK(h) (Homo sapiens, UniProt Q09013)
T31 construct: purchased Eurofins KinaseProfiler
Summary of the method: as §1

[32] = target: T32, ErbB2(h) (Homo sapiens, UniProt P04626)
T32 construct: purchased Eurofins KinaseProfiler
Summary of the method: as §1

[33] = target: T33, ErbB4(h) (Homo sapiens, UniProt Q15303)
T33 construct: purchased Eurofins KinaseProfiler
Summary of the method: as §1

[34] = target: T34, Lck(h) (Homo sapiens, UniProt P06239)
T34 construct: purchased Eurofins KinaseProfiler
Summary of the method: as §1

[35] = target: T35, MAPKAP-K2(h) (Homo sapiens, UniProt P49137)
T35 construct: purchased Eurofins KinaseProfiler
Summary of the method: as §1

[36] = target: T36, MST4(h) (Homo sapiens, UniProt Q9P289)
T36 construct: purchased Eurofins KinaseProfiler
Summary of the method: as §1

[37] = target: T37, NEK3(h) (Homo sapiens, UniProt P51956)
T37 construct: purchased Eurofins KinaseProfiler
Summary of the method: as §1

[38] = target: T38, NEK6(h) (Homo sapiens, UniProt Q9HC98)
T38 construct: purchased Eurofins KinaseProfiler
Summary of the method: as §1

[39] = target: T39, PAK6(h) (Homo sapiens, UniProt Q9NQU5)
T39 construct: purchased Eurofins KinaseProfiler
Summary of the method: as §1

[40] = target: T40, SAPK2b(h) (Homo sapiens, UniProt Q15759)
T40 construct: purchased Eurofins KinaseProfiler
Summary of the method: as §1

[41] = target: T41, STK25(h) (Homo sapiens, UniProt O00506)
T41 construct: purchased Eurofins KinaseProfiler
Summary of the method: as §1

[42] = target: T42, TAO3(h) (Homo sapiens, UniProt Q9H2K8)
T42 construct: purchased Eurofins KinaseProfiler
Summary of the method: as §1

T4 sequence (P51813 whole entry): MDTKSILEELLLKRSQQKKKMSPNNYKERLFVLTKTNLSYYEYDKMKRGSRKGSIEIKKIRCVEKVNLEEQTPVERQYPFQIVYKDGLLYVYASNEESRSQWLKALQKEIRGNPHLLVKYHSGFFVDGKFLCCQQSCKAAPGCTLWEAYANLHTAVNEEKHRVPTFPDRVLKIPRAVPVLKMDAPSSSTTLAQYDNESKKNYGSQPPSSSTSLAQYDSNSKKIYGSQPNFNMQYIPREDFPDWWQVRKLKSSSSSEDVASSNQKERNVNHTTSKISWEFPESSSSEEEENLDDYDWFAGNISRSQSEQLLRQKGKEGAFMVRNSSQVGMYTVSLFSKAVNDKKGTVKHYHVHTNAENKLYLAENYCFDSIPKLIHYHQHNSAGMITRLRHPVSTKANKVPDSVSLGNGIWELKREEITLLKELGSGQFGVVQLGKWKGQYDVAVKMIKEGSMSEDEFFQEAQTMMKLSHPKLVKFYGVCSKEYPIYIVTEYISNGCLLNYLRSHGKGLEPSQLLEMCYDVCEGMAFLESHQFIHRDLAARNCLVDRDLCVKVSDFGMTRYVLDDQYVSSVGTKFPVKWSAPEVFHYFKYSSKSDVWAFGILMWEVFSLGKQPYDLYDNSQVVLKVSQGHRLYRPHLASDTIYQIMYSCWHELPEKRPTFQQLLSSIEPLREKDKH
T36 sequence (Q9P289 whole entry): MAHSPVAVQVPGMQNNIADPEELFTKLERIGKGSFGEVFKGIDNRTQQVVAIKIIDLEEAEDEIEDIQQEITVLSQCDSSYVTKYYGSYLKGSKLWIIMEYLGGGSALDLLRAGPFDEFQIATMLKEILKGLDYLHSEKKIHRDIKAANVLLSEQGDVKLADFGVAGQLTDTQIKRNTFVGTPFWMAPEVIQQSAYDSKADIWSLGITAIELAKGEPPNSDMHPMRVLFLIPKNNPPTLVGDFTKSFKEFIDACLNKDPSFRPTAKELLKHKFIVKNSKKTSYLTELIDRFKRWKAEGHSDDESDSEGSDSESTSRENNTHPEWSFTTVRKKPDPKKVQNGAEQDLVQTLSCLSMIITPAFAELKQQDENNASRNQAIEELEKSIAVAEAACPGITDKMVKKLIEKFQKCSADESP
T14 sequence (Q9H422 whole entry): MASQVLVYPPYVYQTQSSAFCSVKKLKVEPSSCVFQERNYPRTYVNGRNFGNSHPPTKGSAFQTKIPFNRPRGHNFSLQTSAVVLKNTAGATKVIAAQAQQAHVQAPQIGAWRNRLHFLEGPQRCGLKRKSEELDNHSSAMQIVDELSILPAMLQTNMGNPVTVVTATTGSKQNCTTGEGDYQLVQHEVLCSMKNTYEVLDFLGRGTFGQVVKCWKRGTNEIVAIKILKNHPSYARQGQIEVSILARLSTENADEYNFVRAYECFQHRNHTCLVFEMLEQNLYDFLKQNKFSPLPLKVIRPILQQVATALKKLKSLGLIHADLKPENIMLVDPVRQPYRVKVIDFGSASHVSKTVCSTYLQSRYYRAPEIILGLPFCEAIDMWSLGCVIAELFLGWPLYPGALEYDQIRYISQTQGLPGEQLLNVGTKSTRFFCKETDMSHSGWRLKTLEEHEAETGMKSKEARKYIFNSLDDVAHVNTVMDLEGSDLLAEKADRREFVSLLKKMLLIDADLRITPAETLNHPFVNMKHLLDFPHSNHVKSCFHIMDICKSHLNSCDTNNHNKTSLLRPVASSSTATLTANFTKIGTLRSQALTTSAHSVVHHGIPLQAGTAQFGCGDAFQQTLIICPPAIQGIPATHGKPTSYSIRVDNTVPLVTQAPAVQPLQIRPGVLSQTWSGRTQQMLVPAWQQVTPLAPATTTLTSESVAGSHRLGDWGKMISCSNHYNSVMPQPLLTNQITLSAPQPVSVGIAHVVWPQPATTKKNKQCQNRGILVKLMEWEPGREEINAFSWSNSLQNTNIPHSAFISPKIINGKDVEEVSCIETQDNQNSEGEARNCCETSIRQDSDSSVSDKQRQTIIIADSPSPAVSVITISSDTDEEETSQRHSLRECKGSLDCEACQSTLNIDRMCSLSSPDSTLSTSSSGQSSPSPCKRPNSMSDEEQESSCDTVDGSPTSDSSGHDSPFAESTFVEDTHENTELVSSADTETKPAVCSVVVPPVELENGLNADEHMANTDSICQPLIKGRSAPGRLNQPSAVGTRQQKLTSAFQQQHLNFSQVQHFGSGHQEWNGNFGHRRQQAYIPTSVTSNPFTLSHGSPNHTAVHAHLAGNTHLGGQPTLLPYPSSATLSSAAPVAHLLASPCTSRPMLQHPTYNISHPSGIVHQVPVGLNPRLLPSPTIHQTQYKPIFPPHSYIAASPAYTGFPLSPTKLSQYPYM
T42 sequence (Q9H2K8 whole entry): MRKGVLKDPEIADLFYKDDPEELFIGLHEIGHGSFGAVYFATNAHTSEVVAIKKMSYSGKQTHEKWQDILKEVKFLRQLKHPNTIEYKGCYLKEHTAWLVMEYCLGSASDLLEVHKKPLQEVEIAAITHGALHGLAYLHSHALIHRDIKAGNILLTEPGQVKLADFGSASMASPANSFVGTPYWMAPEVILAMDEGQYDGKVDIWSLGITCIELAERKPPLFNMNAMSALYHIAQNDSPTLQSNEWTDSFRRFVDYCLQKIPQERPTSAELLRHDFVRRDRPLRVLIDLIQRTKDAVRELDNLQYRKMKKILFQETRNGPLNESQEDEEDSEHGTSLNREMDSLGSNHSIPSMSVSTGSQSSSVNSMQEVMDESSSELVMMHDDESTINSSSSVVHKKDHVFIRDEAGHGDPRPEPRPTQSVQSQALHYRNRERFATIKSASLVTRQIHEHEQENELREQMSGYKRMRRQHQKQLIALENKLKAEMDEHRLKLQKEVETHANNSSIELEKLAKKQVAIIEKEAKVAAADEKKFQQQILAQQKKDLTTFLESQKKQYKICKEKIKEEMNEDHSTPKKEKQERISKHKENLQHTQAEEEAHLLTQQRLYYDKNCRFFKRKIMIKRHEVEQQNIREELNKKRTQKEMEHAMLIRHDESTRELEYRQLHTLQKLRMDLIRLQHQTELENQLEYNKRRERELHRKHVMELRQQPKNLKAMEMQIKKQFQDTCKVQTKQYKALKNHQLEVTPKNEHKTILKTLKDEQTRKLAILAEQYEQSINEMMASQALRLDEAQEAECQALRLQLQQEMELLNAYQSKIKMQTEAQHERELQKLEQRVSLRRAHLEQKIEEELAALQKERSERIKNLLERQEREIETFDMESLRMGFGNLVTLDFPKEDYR
T8 sequence (Q13554 whole entry): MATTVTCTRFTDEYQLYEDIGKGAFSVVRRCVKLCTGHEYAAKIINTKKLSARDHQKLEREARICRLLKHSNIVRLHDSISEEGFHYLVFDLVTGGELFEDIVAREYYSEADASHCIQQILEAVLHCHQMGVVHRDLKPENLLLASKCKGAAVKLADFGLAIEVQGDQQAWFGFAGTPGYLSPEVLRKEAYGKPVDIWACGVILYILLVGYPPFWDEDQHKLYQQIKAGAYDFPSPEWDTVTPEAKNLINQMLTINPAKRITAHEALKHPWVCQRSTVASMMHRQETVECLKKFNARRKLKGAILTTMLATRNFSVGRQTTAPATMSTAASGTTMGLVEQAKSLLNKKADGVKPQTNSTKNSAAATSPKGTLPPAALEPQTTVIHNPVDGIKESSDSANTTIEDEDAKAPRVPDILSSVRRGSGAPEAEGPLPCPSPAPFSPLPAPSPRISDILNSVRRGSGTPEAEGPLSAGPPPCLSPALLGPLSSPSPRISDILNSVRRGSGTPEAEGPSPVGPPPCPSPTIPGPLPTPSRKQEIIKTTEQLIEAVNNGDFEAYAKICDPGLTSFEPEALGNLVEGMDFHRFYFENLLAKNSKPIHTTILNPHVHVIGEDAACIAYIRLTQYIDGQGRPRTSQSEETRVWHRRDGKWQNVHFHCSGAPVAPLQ
T19 sequence (Q9UQM7 whole entry): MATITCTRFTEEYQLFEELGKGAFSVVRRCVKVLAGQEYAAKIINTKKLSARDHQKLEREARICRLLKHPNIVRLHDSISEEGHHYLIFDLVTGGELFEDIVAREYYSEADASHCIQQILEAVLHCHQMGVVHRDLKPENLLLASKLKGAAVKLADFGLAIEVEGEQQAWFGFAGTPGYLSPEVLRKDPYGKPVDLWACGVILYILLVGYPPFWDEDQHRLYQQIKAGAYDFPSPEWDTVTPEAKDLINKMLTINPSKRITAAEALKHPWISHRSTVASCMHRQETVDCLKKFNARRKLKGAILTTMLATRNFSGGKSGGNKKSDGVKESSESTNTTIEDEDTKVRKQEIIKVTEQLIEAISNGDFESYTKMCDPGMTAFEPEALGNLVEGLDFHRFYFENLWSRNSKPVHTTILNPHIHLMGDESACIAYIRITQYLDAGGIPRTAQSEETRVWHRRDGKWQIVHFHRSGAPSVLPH
T35 sequence (P49137 whole entry): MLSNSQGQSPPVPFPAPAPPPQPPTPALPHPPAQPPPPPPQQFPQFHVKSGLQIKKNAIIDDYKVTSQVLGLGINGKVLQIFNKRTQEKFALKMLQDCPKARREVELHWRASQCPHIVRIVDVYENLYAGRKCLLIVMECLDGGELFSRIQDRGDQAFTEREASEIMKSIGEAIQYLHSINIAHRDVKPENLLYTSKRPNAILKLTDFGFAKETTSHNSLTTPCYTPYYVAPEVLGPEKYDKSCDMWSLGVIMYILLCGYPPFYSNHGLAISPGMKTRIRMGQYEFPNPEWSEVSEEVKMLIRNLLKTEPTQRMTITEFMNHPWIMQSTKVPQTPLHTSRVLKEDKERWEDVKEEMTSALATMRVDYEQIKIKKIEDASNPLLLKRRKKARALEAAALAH

activity at 10 µM [1]: 124%
activity at 10 µM [2]: 86%
activity at 10 µM [3]: 97%
activity at 10 µM [4]: 89%
activity at 10 µM [5]: 99%
activity at 10 µM [6]: 84%
activity at 10 µM [7]: 100%
activity at 10 µM [8]: 104%
activity at 10 µM [9]: 109%
activity at 10 µM [10]: 97%
activity at 10 µM [11]: 97%
activity at 10 µM [12]: 110%
activity at 10 µM [13]: 87%
activity at 10 µM [14]: 106%
activity at 10 µM [15]: 112%
activity at 10 µM [16]: 93%
Structure (SMILES): COc1cc2oc(-c3ccc(O)c(O)c3)cc(=O)c2c(O)c1OC [Cirsiliol]

Structure (SMILES): COc1ccc(CCc2cc(OC)c(OC)c(OC)c2)cc1O [Erianin]
activity at 0.1 µM [17]: 109%
activity at 0.1 µM [18]: 104%
activity at 0.1 µM [19]: 90%
activity at 0.1 µM [20]: 108%
activity at 0.1 µM [21]: 91%
activity at 0.1 µM [22]: 117%
activity at 0.1 µM [23]: 96%
activity at 0.1 µM [24]: 91%
activity at 0.1 µM [25]: 103%
activity at 0.1 µM [26]: 122%
activity at 0.1 µM [27]: 111%
activity at 0.1 µM [28]: 91%

activity at 10 µM [29]: 57%
activity at 10 µM [30]: 69%
activity at 10 µM [31]: 104%
activity at 10 µM [32]: 112%
activity at 10 µM [33]: 91%
activity at 10 µM [34]: 89%
activity at 10 µM [35]: 85%
activity at 10 µM [36]: 140%
activity at 10 µM [37]: 64%
activity at 10 µM [38]: 99%
activity at 10 µM [39]: 104%
activity at 10 µM [40]: 102%
activity at 10 µM [41]: 105%
activity at 10 µM [42]: 66%
Structure (SMILES): C=C1C(=O)[C@]23[C@H](O)[C@H]1CC[C@H]2[C@@]12CO[C@]3(O)[C@@H](O)[C@@H]1C(C)(C)CC[C@@H]2O [Oridonin]
